Data as given in ChEMBL document CHEMBL1201862, “PubChem BioAssay data set” (2004).
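1) Cells in 96-well plates. 2) Compound, 48 h, 5 concentrations. 3) Linear interpolation between surrounding doses. 4) Unreached endpoint = highest concentration. GI50: concentration for 50% inhibition of growth.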 Activity calls are given as the source filed them. Cut-off read from the data, not from the text of the source: active = GI50 up to about 1.1 µM and inactive = higher.

How the values were obtained:
Assay in all cases: NCI-60 cell line screen, 48 h
CAKI-1 = test system: CAKI-1
CCRF-CEM = test system: CCRF-CEM
DU-145 = test system: DU-145
HCT-116 = test system: HCT-116
HL-60 = test system: HL-60
K562 = test system: K562
M14 = test system: M14
MDA-N = test system: MDA-N
NCI-H23 = test system: NCI-H23
OVCAR-5 = test system: OVCAR-5
OVCAR-8 = test system: OVCAR-8
SF-268 = test system: SF-268
SF-539 = test system: SF-539
SK-MEL-2 = test system: SK-MEL-2
SK-MEL-5 = test system: SK-MEL-5
SNB-75 = test system: SNB-75
TK-10 = test system: TK-10
HOP-62 = test system: HOP-62
SK-MEL-28 = test system: SK-MEL-28

Measured: GI50

O=C1c2ccccc2-c2nc(-c3cccc([N+](=O)[O-])c3)nnc21
inactive: CAKI-1 4.24 µM | CCRF-CEM 7.14 µM | DU-145 4.25 µM | HCT-116 23.1 µM | HL-60 3.07 µM | K562 5.94 µM | M14 23 µM | MDA-N 2.54 µM | NCI-H23 17.6 µM | OVCAR-5 20.1 µM | OVCAR-8 11.4 µM | SF-268 43.1 µM | SF-539 22.6 µM | SK-MEL-2 18.9 µM | SK-MEL-5 2.69 µM | SNB-75 21.4 µM | TK-10 18.7 µM

O=C(/C=C/c1ccc(-c2ccccc2)cc1)NCc1ccc(C(=O)NCCc2ccccc2)cc1
inactive: CAKI-1 > 100 µM | CCRF-CEM 18.5 µM | DU-145 > 100 µM | HCT-116 34.4 µM | HOP-62 60.8 µM | K562 88.5 µM | M14 > 100 µM | MDA-N > 100 µM | NCI-H23 > 100 µM | OVCAR-5 > 100 µM | OVCAR-8 36.2 µM | SF-268 > 100 µM | SF-539 12.3 µM | SK-MEL-28 > 100 µM | SK-MEL-2 > 100 µM | SK-MEL-5 > 100 µM | SNB-75 49.3 µM | TK-10 > 100 µM

CC(Oc1ccccc1Cl)C(=O)NN1C(=O)CC(=O)NC1=S (stereo unspecified)
inactive: CAKI-1 > 100 µM | DU-145 > 100 µM | HCT-116 > 100 µM | HL-60 9.23 µM | HOP-62 > 100 µM | K562 9.53 µM | M14 > 100 µM | MDA-N > 100 µM | NCI-H23 > 100 µM | OVCAR-5 > 100 µM | OVCAR-8 > 100 µM | SF-268 > 100 µM | SF-539 > 100 µM | SK-MEL-28 > 100 µM | SK-MEL-2 93.5 µM | SK-MEL-5 > 100 µM | SNB-75 > 100 µM | TK-10 > 100 µM

CCOC(=O)c1c(SCCN2CCCCC2)n(-c2ccccc2)c(=S)n(-c2ccccc2)c1=O
inactive: CCRF-CEM 2.99 µM | DU-145 29.6 µM | HCT-116 2.18 µM | HL-60 3.49 µM | HOP-62 14 µM | K562 3 µM | M14 28.6 µM | MDA-N 18.5 µM | NCI-H23 16.9 µM | OVCAR-5 > 100 µM | OVCAR-8 22.9 µM | SF-268 28.6 µM | SK-MEL-28 8.85 µM | SK-MEL-2 > 100 µM | SK-MEL-5 15.6 µM | SNB-75 15 µM | TK-10 18 µM

COc1cc(OC)c(-n2[nH]c(=O)n(C)c2=O)c(OC)c1
inactive: CAKI-1 > 100 µM | CCRF-CEM > 100 µM | DU-145 > 100 µM | HCT-116 > 100 µM | HL-60 > 100 µM | K562 > 100 µM | M14 > 100 µM | MDA-N > 100 µM | NCI-H23 > 100 µM | OVCAR-5 > 100 µM | OVCAR-8 > 100 µM | SF-268 > 100 µM | SF-539 > 100 µM | SK-MEL-28 > 100 µM | SK-MEL-2 > 100 µM | SNB-75 > 100 µM | TK-10 > 100 µM

CCN(CC)c1ccc(/C=C/C2=NN(c3cccc(S(=O)(=O)O)c3)C3(C2)SCC(=O)N3c2nc3ccccc3s2)cc1 (stereo unspecified)
inactive: CAKI-1 76.6 µM | CCRF-CEM 21.4 µM | DU-145 27.4 µM | HCT-116 45.1 µM | HL-60 24 µM | K562 17.7 µM | M14 41.8 µM | MDA-N 39 µM | NCI-H23 37.2 µM | OVCAR-5 > 100 µM | OVCAR-8 33.6 µM | SF-268 40.5 µM | SF-539 33 µM | SK-MEL-28 80.4 µM | SK-MEL-2 40.1 µM | SK-MEL-5 21.1 µM | SNB-75 74.3 µM | TK-10 23.1 µM

CN(C)C(=O)Nc1cc2c3c(c1)CCCN3CCC2
inactive: CAKI-1 > 10 µM | CCRF-CEM > 10 µM | DU-145 > 10 µM | HCT-116 > 10 µM | HL-60 > 10 µM | HOP-62 > 10 µM | K562 > 10 µM | M14 > 10 µM | MDA-N > 10 µM | NCI-H23 > 10 µM | OVCAR-8 > 10 µM | SF-268 > 10 µM | SF-539 > 10 µM | SK-MEL-28 > 10 µM | SK-MEL-2 > 10 µM | SK-MEL-5 > 10 µM | SNB-75 > 10 µM | TK-10 > 10 µM

Oc1cc(/C=C/c2ccccc2)nc2cc3c(cc12)OCO3
inactive: DU-145 7.06 µM | HCT-116 3.19 µM | HOP-62 3.47 µM | M14 5.25 µM | MDA-N 2.03 µM | NCI-H23 3.26 µM | OVCAR-5 3.54 µM | OVCAR-8 5.53 µM | SF-539 2.08 µM | SK-MEL-28 8.65 µM | SK-MEL-2 3.72 µM | SNB-75 6.93 µM | TK-10 10.7 µM

Clc1ccc(-c2cn3c(nc4ccccc43)c(/C=C/c3ccco3)n2)cc1
inactive: DU-145 75.7 µM | HCT-116 41.8 µM | HL-60 12.5 µM | HOP-62 42.5 µM | K562 29.8 µM | M14 58.1 µM | MDA-N 72.8 µM | NCI-H23 31.4 µM | OVCAR-5 > 100 µM | SF-268 27.7 µM | SF-539 71.1 µM | SK-MEL-28 57.9 µM | SK-MEL-2 18.1 µM | SK-MEL-5 33.9 µM | SNB-75 18.4 µM | TK-10 24 µM

Cn1c(=O)c2[nH]c(Nc3cccc(Cl)c3)nc2n(C)c1=O
inactive: CAKI-1 4.75 µM | CCRF-CEM 3.96 µM | DU-145 4.76 µM | HL-60 3.31 µM | HOP-62 4.67 µM | K562 5.4 µM | M14 5.6 µM | MDA-N 4.21 µM | NCI-H23 2.63 µM | OVCAR-8 6.17 µM | SF-268 6.98 µM | SK-MEL-28 5.42 µM | SK-MEL-5 4.28 µM | SNB-75 4.86 µM | TK-10 8.91 µM

O=C(Cc1ccccc1)NNc1nc(NNC(=O)c2ccncc2)nc(Nc2cccc(Cl)c2)n1
inactive: CAKI-1 > 10 µM | CCRF-CEM > 10 µM | DU-145 > 10 µM | HL-60 > 10 µM | HOP-62 > 10 µM | K562 > 10 µM | M14 > 10 µM | MDA-N > 10 µM | NCI-H23 > 10 µM | OVCAR-8 > 10 µM | SF-268 > 10 µM | SF-539 > 10 µM | SK-MEL-28 > 10 µM | SK-MEL-5 > 10 µM | SNB-75 > 10 µM | TK-10 > 10 µM

O=C1C=C(c2ccccc2)O/C1=C\C(=O)c1ccc(Cl)cc1
inactive: CAKI-1 18.1 µM | DU-145 43.6 µM | HCT-116 16.4 µM | HL-60 2.18 µM | HOP-62 > 100 µM | K562 22.2 µM | M14 19.6 µM | MDA-N 23.6 µM | NCI-H23 25.5 µM | OVCAR-5 24.3 µM | OVCAR-8 22.6 µM | SF-268 20 µM | SF-539 57.7 µM | SK-MEL-28 19.9 µM | SK-MEL-5 21.5 µM | SNB-75 4.84 µM | TK-10 20.1 µM

COC1OC2COC1(OCc1ccccc1)C1OC(C)(C)OC21 (stereo unspecified)
inactive: CAKI-1 > 100 µM | CCRF-CEM > 100 µM | DU-145 > 100 µM | HCT-116 > 100 µM | HOP-62 > 100 µM | K562 > 100 µM | M14 > 100 µM | MDA-N > 100 µM | NCI-H23 > 100 µM | OVCAR-5 > 100 µM | OVCAR-8 > 100 µM | SF-268 > 100 µM | SK-MEL-28 > 100 µM | SK-MEL-2 > 100 µM | SK-MEL-5 > 100 µM | SNB-75 > 100 µM | TK-10 > 100 µM

C[C@H](NC1=CC(=O)C(N[C@@H](C)[C@H](O)c2ccccc2)=CC1=O)[C@H](O)c1ccccc1
inactive: CAKI-1 > 100 µM | CCRF-CEM 57.8 µM | DU-145 > 100 µM | HCT-116 68.4 µM | HL-60 > 100 µM | HOP-62 > 100 µM | K562 > 100 µM | M14 > 100 µM | MDA-N > 100 µM | NCI-H23 67 µM | OVCAR-5 > 100 µM | OVCAR-8 > 100 µM | SF-268 > 100 µM | SF-539 63.8 µM | SK-MEL-28 > 100 µM | SK-MEL-2 > 100 µM | SK-MEL-5 49.5 µM | TK-10 55.7 µM

CCN(CC)CCCNc1nc2ccccc2[n+]([O-])n1
inactive: CAKI-1 > 100 µM | CCRF-CEM > 100 µM | DU-145 > 100 µM | HCT-116 > 100 µM | HL-60 > 100 µM | K562 > 100 µM | M14 > 100 µM | MDA-N > 100 µM | NCI-H23 > 100 µM | OVCAR-5 > 100 µM | OVCAR-8 > 100 µM | SF-268 > 100 µM | SF-539 > 100 µM | SK-MEL-28 > 100 µM | SK-MEL-2 > 100 µM | SK-MEL-5 > 100 µM | SNB-75 64.1 µM | TK-10 > 100 µM

CCCCn1c2c(n(CCCC)c1=[Se])-c1c(n(CCCC)c(=[Se])n1CCCC)S[Se][Se]S2
inactive: CAKI-1 5.3 µM | CCRF-CEM 3.78 µM | DU-145 25 µM | HCT-116 22.8 µM | HOP-62 13.7 µM | K562 9.84 µM | M14 25.6 µM | MDA-N 33.7 µM | NCI-H23 25.1 µM | OVCAR-5 20.7 µM | OVCAR-8 16.9 µM | SF-268 32.7 µM | SF-539 20.8 µM | SK-MEL-28 39.1 µM | SK-MEL-2 18 µM | SK-MEL-5 16.6 µM | SNB-75 20.6 µM | TK-10 5.4 µM
